This assay concerns ovariectomized rat model of osteoporosis. Nature of the assay: Bone histomorphometry of tibia trabecular bone with micro-CT. In kind it is in vivo. The following applies: OVX rats, DVAB composition 0.2 g/kg, positive 0.1 mg/5 ml/kg ethinylestridiol, 20 weeks. As for the experimental part: In an ovariectomized rat model of osteoporosis, rats were divided into sham (5 ml/kg ddH2O without ovariectomy) and ovariectomized (OVX) groups. The OVX rats were then subdivided into two groups orally treated with 5 ml/kg ddH2O (control group) and DVAB composition (0.2 g/kg) daily for 20 weeks. The positive group refers to rats receiving 0.1 mg/5 ml/kg of ethinylestridiol.
Biomechanical strength also was measured by three-point bending test of femur and compression test of vertebra. Furthermore, the tibia from rats was measured by cancellous bone histomorphometry with micro-CT. In this study, percentage of bone volume (BV/TV), trabecular thickness (Tb, Th), trabecular number (Tb, N), trabecular separation (Tb, Sp) and structure model index (SMI) were measured.

Marks after values point to notes of the source that are not given here.

As to `C#C[C@]1(O)CC[C@H]2[C@@H]3CCc4cc(O)ccc4[C@H]3CC[C@@]21C` [Positive Control, ethinylestridiol], the BV/TV is listed as 25.69 +/− 10.41* %, the SMI is reported as 1.29 +/− 0.52^#, the Tb.N is on record as 0.0028 +/− 0.0010* 1/μm and the Tb.Sp was 255.99 +/− 94.24* μm. Moreover, the Tb.Th was 90.29 +/− 4.01 μm.

The record behind these values is patent publication US8765188B2, “Composition for treating and/or preventing osteoporosis” (Taipei Medical University, priority 2011, dated 2014).
